# In US10759740B2, “Antibacterial agents” (Rutgers, The State University of New Jersey, priority 2016, dated 2020):
# Experiments:
# S. aureus = assay: SEM and TEM of treated bacteria; type: cell-based, Staphylococcus aureus; settings: at MIC, 1 h
# Description: (§1) Bacteria were grown to the mid-exponential growth phase. Silicon wafers were submerged in the bacterial solutions in the presence or absence of CAMs at their respective MICs and incubated for 1 h. 0.25% glucose was added to facilitate attachment. The bacteria on wafers were fixed in 2.5% glutaraldehyde for 1 h at room temperature, washed three times with PBS, and postfixed 1% osmium tetroxide. The samples were then dehydrated in a graded series of ethanol solutions (50%, 70%, 80%, 95%, 100%), dried with graded hexamethyldisilazane (50%, 100%), and left to air dry for two days. After drying, the wafers were mounted on stub and sputter-coated with 20 nm gold prior to inspection under microscope (Zeiss Sigma Field Emission SEM, Carl Zeiss, Ontario, Calif.) at 5 kV.
# (§2) Bacteria were grown as described above for SEM sample preparation. In brief, bacteria were incubated in the presence or absence of CAMs at their respective MICs for 1 h. After centrifugation at 500×g for 10 min, the resulting pellet was fixed in 2.5% glutaraldehyde, washed three times with PBS, and postfixed with 1% osmium tetroxide. The samples were then dehydrated with graded ethanol series (50%, 70%, 80%, 95%, 100%) and embedded in epoxy resin (Dr. Spurr's kit, Electron Microscopy Sciences, Hatfield, Pa.). Ultrathin sections of the cells were stained with 1% uranyl acetate. […]
# E. coli = assay: SEM and TEM of treated bacteria; type: cell-based, Escherichia coli; settings: at MIC, 1 h
# Description: as §1, §2
# [1] = tested on: G. vaginalis pre-formed biofilms; assay: Biofilm removal (FIG. 5); type: cell-based; settings: 250 μg/mL against pre-formed biofilms
smiles,measurement,setting,value
CCCCCCCCCCOC(C(=O)NCCN)C(OCCCCCCCCCC)C(=O)NCCN.Cl.Cl (stereo not drawn) [5b],ultrastructural changes (TEM),S. aureus,profound internal damage
same,ultrastructural changes (TEM),E. coli,extensive ultrastructural damage
same,removal of biofilm structures,[1],up to 70%
